Consider 1 compound from US10675294B2, “Pharmaceutical composition containing 8 OXO-deoxyguanosine or pharmaceutically acceptable salt thereof as active ingredient for treating corneal disease” (GACHON UNIVERSITY OF INDUSTRY-ACADEMIC COOPERATION …, priority 2016, dated 2020).

Test [1] relates to ethanol induced corneal injury mouse model. As to the kind of experiment: Visual and lysamine green staining observation of corneal epithelium surface. It is filed as in vivo. Particulars: 5 mg/ml and 10 mg/ml in the eye twice a day for a week; compared with control (PBS); FIG. 3. As for the experimental part: (§1) Particularly, in order to construct a corneal injury mouse model using ethanol, a filter paper of 6 mm in diameter soaked in 100% ethanol was applied onto the cornea of the right eye of a female BALB/c mouse at 10 weeks of age for 30 seconds, followed by irrigation with PBS (phosphate-buffered saline) for 1 minute. In order to observe the defects of the corneal epithelium surface easily, the lysamine green reagent, which selectively stains the epithelium defect area, was treated on the surface of the damaged corneal epithelium and washed with physiological saline.
The 8-oxo-2′-deoxyguanosine compound prepared at the concentrations of 5 mg/ml and 10 mg/ml and the control PBS (phosphate-buffered saline) were applied into the eye of the ethanol induced corneal injury mouse model constructed in Example 1, respectively twice a day for a week, followed by observation with the naked eye and photographs (n=15 in each group).

For test [2] the test system is unchanged. The experiment in a line: Clinical index scoring of corneal epithelium damage recovery. It is filed as in vivo. On the procedure:
as §1
8-oxo-dG was applied into the eye of the ethanol induced corneal injury mouse model for a week and then the recovery of the corneal epithelium damage was investigated. Particularly, the ethanol induced corneal injury mouse model examined in Experimental Example 1 was injected with Zoletil intramuscularly in order to anesthetize the mouse, followed by lysamine green staining on the cornea. Then, epithelial integrity and clarity of the corneal epithelium and corneal neovascularization were investigated and the results proceeded to clinical grading and scoring by items.
The corneal clarity was also evaluated and scored step by step. The indexes of the evaluation are as follows (Fantes et al, Arch Ophthalmol 1990).
In addition, in order to evaluate and score the degree of corneal neovascularization, the cornea was divided into quadrants as shown in FIG. 1. Based on the limbus between the cornea and the sclera, 0.5 points were assigned to each part of the newly formed vessels in the inside, followed by indexing and scoring (total 12 scores) (Li et al, Molecular Vision 2010).
During the application of 8-oxo-dG into the eye for a week, corneal staining was performed for a week to graphically identify the recovery of the corneal epithelial defects on daily basis.

Test [3] shares this test system. The experiment in a line: Histological observation (H&E) of corneal tissue. It is filed as in vivo. Particulars: 5 mg/ml or 10 mg/ml in the eye twice a day for a week; n=2; FIGS. 5a, 5b. As for the experimental part: as §1
The ethanol induced corneal injury mouse model constructed in Example 1 was administered with 8-oxo-dG in the eye at the concentration of 5 mg/ml or 10 mg/ml and the control PBS (phosphate-buffered saline), twice a day for a week. The corneal tissues were extracted and fixed in 10% paraformaldehyde, followed by washing with PBS. The tissues were embedded in paraffin and the paraffin block was stained with H&E (haematoxylin and eosin), followed by direct observation under the microscope. The stromal thickness was measured by using Image J software.

For test [4], the system named is neutrophils, macrophages and T cells. The experiment in a line: Immunohistochemical staining of inflammatory cells in corneal tissue. To be noted: 5 mg/ml or 10 mg/ml in the eye twice a day for a week, compared with control. Type of test: in vivo, mouse. On the procedure: as §1
Particularly, the ethanol induced corneal injury mouse model constructed in Example 1 was administered with 8-oxo-dG in the eye at the concentration of 5 mg/ml or 10 mg/ml and the control PBS (phosphate-buffered saline), twice a day for a week. The corneal tissues were extracted and fixed in 10% paraformaldehyde, followed by washing with PBS. The tissues were treated with anti-neutrophil elastase, anti CD3 and anti F4/80 antibodies (Abcam, Cambridge, UK), the markers of neutrophils, T lymphocytes and macrophages. After washing with PBS, the secondary antibody (REAL™ EnVision™ detection system, Dako) was applied thereto. […] The immunostained cells in each section were counted by hand by two skilled examiners and the numbers were averaged.

For test [5], the system named is IL-1β. The experiment in a line: Inflammatory cytokine mRNA expression in corneal tissue by real time PCR. It is filed as in vivo, mouse. Particulars: 10 mg/ml in the eye twice a day for a week; compared with control; FIG. 7b. On the procedure:
as §1
(§2) Particularly, the ethanol induced corneal injury mouse model constructed in Example 1 was administered with 8-oxo-dG in the eye at the concentration of 5 mg/ml or 10 mg/ml and the control PBS (phosphate-buffered saline), twice a day for a week. The corneal tissue was extracted and homogenized with a sonicator (Ultrasonic Processor, Cole Parmer Instruments, Vernon Hills, Ill., USA). Then, corneal RNA was extracted by using RNeasy Mini kit (Qiagen, Valencia, Calif., USA). CDNA was synthesized with the same amount of RNA of each corneal sample and real-time PCR (ABI 7500 Real Time PCR System, Applied Biosystems, Carlsbad, Calif., USA) was performed. Taqman Gene Expression Assays were used for real-time PCR. The detailed inflammatory cytokines were as follows. […]
For orientation: Real-time PCR tracks product formation cycle by cycle.

For test [6], the system named is IL-6. The test is described as above. Type of test: in vivo, mouse. To be noted: 5 mg/ml or 10 mg/ml in the eye twice a day for a week; three groups incl. PBS; FIG. 7c. On the procedure:
as §1, §2

For test [7], the system named is TNF-α. The test is described as above. It is filed as in vivo, mouse. To be noted: 5 mg/ml or 10 mg/ml in the eye twice a day for a week; compared with control; FIG. 7a.
Test [8] has as its system Rac protein. Particulars: exogenous 8-oxo-dG; previous experiments with animal models; cited from earlier work.

Consider `Nc1nc2c([nH]c(=O)n2[C@H]2CC(O)[C@@H](CO)O2)c(=O)[nH]1` (some centres unmarked) [8-oxo-dG, 8-oxo-2′-deoxyguanosine], for which, in test [1], the “corneal epithelium surface damage, lysamine green staining (after staining)” value is “reduced significantly by the treatment of 8-oxo-dG dose-dependently” and the “corneal epithelium surface damage, naked eye (before staining)” value is listed as “reduced by the treatment of 8-oxo-dG dose-dependently”. Also, in test [2] (5 mg/ml or 10 mg/ml in the eye twice a day for a week, FIG. 4c), the neovascularization scoring index result is recorded as “reduced in the group treated with 8-oxo-dG to some degree”. The “epithelial integrity index score (defect of the corneal epithelium surface)” value in test [2] (5 mg/ml or 10 mg/ml in the eye twice a day for a week, compared with PBS, FIG. 4a) was “reduced in the group treated with 8-oxo-dG dose-dependently”. The “corneal clarity scoring index” value in test [2] (5 mg/ml or 10 mg/ml in the eye twice a day for a week, lower index = improved clarity, FIG. 4b) was “reduced in the group treated with 8-oxo-dG dose-dependently”. The “daily recovery of corneal epithelial defects (corneal staining index score)” value in test [2] (5 mg/ml or 10 mg/ml in the eye, daily corneal staining for a week, FIG. 4d) is recorded as “significantly reduced in the group treated with 8-oxo-dG dose-dependently”. Further, the “corneal epithelium tissue condition/thickness (H&E)” value in test [3] is recorded as “restored to the normal level”. For the same compound, in test [4] (FIG. 6a), the “number of cells stained with anti-neutrophil elastase (neutrophils)” value was “reduced significantly”. Also, the “number of cells stained with anti F4/80 (macrophages)” value in test [4] (FIG. 6b) is “reduced significantly”. The “number of cells stained with anti CD3 (T cells)” value in test [4] (FIG. 6c) was “not much different”. For the same compound, the “expression of IL-1β mRNA” value in test [5] was “significantly reduced”. The “expression of IL-6 mRNA” value in test [6] is “not much different”. Also, the “expression of TNF-α mRNA” value in test [7] was “not significantly but slightly reduced”. Also, in test [8], the “effect on Rac protein (GTPase)” value was “inactivated Rac protein”.
